These compounds were tested against T1, STK10 (Homo sapiens, UniProt O94804) (assay: DSF Tm panel). Settings: 10 μM compound.
T1 construct: purchased in-house DSF kinase panel (SGC-style construct names; the trailing letter is the construct ID)
Type: binding

T1 sequence (O94804 18-317 limits assumed): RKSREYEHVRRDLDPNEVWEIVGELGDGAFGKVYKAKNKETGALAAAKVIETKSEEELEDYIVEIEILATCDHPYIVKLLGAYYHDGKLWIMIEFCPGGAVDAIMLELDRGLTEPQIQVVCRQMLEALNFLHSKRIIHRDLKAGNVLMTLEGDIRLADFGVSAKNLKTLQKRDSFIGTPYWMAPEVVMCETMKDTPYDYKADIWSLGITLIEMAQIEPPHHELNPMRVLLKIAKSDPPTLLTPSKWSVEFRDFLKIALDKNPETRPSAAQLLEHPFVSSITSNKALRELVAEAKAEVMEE

Structure (SMILES)	ΔTm at 10 µM [°C]
O=C(NCc1ccc(C(F)(F)F)cc1)Nc1ccc2cc1OCCOCCNc1ccn3ncc-2c3n1 [compound 28]	9.9
COc1ccccc1CNC(=O)Nc1ccc2cc1OCCOCCNc1ccn3ncc-2c3n1 [compound 29]	7.5

These compounds were tested against T2, UKL3A (ULK3A) (Homo sapiens, UniProt Q6PHR2) (assay: DSF Tm panel). Settings: 10 μM compound.
T2 construct: purchased in-house DSF kinase panel (SGC-style construct names; the trailing letter is the construct ID)
T2 sequence (Q6PHR2 1-279): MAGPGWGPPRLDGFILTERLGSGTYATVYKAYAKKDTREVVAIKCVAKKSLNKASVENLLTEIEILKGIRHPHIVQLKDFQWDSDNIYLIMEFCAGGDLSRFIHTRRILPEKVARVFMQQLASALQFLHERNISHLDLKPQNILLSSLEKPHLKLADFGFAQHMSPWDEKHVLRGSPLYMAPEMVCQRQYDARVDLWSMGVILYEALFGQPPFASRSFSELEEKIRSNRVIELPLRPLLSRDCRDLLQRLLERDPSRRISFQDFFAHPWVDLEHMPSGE
Type: binding

Structure (SMILES)	ΔTm at 10 µM [°C]
O=C(NCc1ccc(C(F)(F)F)cc1)Nc1ccc2cc1OCCOCCNc1ccn3ncc-2c3n1 [compound 28]	4.3
COc1ccccc1CNC(=O)Nc1ccc2cc1OCCOCCNc1ccn3ncc-2c3n1 [compound 29]	4.2

The compounds below were run against T3, CLK1A (Homo sapiens, UniProt P49759) (assay: DSF Tm panel). Settings: 10 μM compound.
T3 construct: purchased in-house DSF kinase panel (SGC-style construct names; the trailing letter is the construct ID)
Type: binding

T3 sequence (P49759 148-484): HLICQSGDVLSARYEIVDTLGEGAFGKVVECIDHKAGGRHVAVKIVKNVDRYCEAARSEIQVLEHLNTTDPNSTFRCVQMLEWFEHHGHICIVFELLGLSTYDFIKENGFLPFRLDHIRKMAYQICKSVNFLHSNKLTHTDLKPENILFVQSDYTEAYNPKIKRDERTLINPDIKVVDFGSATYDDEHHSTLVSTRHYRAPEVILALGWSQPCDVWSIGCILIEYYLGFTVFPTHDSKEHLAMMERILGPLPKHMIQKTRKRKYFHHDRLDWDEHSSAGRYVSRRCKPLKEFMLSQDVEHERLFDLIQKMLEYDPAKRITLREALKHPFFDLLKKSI

Structure (SMILES)	ΔTm at 10 µM [°C]
O=C(NCc1ccc(C(F)(F)F)cc1)Nc1ccc2cc1OCCOCCNc1ccn3ncc-2c3n1 [compound 28]	2.3
COc1ccccc1CNC(=O)Nc1ccc2cc1OCCOCCNc1ccn3ncc-2c3n1 [compound 29]	2.8

These compounds were tested against T4, DAPK3 (DAPK3A) (Homo sapiens, UniProt O43293) (assay: DSF Tm panel). Settings: 10 μM compound.
T4 construct: purchased in-house DSF kinase panel (SGC-style construct names; the trailing letter is the construct ID)
Type: binding

T4 sequence (O43293 whole entry): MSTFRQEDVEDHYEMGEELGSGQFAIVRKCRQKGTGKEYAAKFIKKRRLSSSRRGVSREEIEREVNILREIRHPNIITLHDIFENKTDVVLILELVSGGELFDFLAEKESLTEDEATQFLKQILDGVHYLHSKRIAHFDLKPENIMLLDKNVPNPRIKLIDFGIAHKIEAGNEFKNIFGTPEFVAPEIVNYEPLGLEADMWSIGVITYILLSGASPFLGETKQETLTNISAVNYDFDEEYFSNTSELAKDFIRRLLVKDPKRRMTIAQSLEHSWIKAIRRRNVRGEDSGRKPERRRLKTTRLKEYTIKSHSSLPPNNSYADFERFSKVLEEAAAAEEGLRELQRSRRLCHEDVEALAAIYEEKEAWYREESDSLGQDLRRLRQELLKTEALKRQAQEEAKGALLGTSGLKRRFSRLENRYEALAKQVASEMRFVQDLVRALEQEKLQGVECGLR

Structure (SMILES)	ΔTm at 10 µM [°C]
O=C(NCc1ccc(C(F)(F)F)cc1)Nc1ccc2cc1OCCOCCNc1ccn3ncc-2c3n1 [compound 28]	1.2
COc1ccccc1CNC(=O)Nc1ccc2cc1OCCOCCNc1ccn3ncc-2c3n1 [compound 29]	0.5

What follows are compounds tested against T5, MAP3K5A (Homo sapiens, UniProt Q99683) (assay: DSF Tm panel). Settings: 10 μM compound.
T5 construct: purchased in-house DSF kinase panel (SGC-style construct names; the trailing letter is the construct ID)
Type: binding

T5 sequence (Q99683 659-951): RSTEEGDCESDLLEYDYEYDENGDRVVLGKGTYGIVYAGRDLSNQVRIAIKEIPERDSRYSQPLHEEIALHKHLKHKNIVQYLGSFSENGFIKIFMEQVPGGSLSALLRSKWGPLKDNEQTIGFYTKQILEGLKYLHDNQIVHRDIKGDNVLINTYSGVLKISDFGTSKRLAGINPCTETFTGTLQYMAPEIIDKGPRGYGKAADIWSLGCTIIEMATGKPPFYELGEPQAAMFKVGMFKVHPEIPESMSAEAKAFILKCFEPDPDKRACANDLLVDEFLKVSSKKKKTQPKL

Structure (SMILES)	ΔTm at 10 µM [°C]
O=C(NCc1ccc(C(F)(F)F)cc1)Nc1ccc2cc1OCCOCCNc1ccn3ncc-2c3n1 [compound 28]	2.1
COc1ccccc1CNC(=O)Nc1ccc2cc1OCCOCCNc1ccn3ncc-2c3n1 [compound 29]	1

What follows are compounds tested against T6, PCTK1A (Homo sapiens, UniProt Q00536) (assay: DSF Tm panel). Settings: 10 μM compound.
T6 construct: purchased in-house DSF kinase panel (SGC-style construct names; the trailing letter is the construct ID)
Type: binding

T6 sequence (Q00536 163-478): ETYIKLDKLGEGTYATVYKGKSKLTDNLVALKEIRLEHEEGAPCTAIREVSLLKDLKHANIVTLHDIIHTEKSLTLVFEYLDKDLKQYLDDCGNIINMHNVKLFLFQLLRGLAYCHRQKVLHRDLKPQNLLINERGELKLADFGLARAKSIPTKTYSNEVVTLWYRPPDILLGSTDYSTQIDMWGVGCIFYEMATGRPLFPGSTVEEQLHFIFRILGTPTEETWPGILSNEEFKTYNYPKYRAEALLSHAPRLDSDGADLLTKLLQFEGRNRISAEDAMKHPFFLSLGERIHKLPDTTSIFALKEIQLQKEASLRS

Structure (SMILES)	ΔTm at 10 µM [°C]
O=C(NCc1ccc(C(F)(F)F)cc1)Nc1ccc2cc1OCCOCCNc1ccn3ncc-2c3n1 [compound 28]	1
COc1ccccc1CNC(=O)Nc1ccc2cc1OCCOCCNc1ccn3ncc-2c3n1 [compound 29]	1

What follows are compounds tested against T7, MAP2K6A (Homo sapiens, UniProt P52564) (assay: DSF Tm panel). Settings: 10 μM compound.
T7 construct: purchased in-house DSF kinase panel (SGC-style construct names; the trailing letter is the construct ID)
T7 sequence (P52564 53-314): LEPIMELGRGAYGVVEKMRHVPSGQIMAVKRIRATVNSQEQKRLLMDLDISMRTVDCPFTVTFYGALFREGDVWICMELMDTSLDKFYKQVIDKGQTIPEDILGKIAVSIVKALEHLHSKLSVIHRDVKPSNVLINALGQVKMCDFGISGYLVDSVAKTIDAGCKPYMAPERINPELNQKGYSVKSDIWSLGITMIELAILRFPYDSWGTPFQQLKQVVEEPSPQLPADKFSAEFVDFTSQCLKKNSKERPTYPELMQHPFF
Type: binding

Structure (SMILES)	ΔTm at 10 µM [°C]
O=C(NCc1ccc(C(F)(F)F)cc1)Nc1ccc2cc1OCCOCCNc1ccn3ncc-2c3n1 [compound 28]	1.1
COc1ccccc1CNC(=O)Nc1ccc2cc1OCCOCCNc1ccn3ncc-2c3n1 [compound 29]	0.7

What follows are compounds tested against T8, CAMK2BA (Homo sapiens, UniProt Q13554) (assay: DSF Tm panel). Settings: 10 μM compound.
T8 construct: purchased in-house DSF kinase panel (SGC-style construct names; the trailing letter is the construct ID)
Type: binding

T8 sequence (Q13554 11-303): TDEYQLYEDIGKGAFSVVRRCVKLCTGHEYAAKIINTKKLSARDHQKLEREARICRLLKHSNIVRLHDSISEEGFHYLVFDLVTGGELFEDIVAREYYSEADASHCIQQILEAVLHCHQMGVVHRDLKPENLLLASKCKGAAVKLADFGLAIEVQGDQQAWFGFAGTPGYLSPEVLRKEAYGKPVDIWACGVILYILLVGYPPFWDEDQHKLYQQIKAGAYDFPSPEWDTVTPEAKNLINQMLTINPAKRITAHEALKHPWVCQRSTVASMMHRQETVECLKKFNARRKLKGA

Structure (SMILES)	ΔTm at 10 µM [°C]
O=C(NCc1ccc(C(F)(F)F)cc1)Nc1ccc2cc1OCCOCCNc1ccn3ncc-2c3n1 [compound 28]	0.3
COc1ccccc1CNC(=O)Nc1ccc2cc1OCCOCCNc1ccn3ncc-2c3n1 [compound 29]	-0.2

The compounds below were run against T9, ABL1 (ABL1A) (Homo sapiens, UniProt P00519) (assay: DSF Tm panel). Settings: 10 μM compound.
T9 construct: purchased in-house DSF kinase panel (SGC-style construct names; the trailing letter is the construct ID)
T9 sequence (P00519 229-512): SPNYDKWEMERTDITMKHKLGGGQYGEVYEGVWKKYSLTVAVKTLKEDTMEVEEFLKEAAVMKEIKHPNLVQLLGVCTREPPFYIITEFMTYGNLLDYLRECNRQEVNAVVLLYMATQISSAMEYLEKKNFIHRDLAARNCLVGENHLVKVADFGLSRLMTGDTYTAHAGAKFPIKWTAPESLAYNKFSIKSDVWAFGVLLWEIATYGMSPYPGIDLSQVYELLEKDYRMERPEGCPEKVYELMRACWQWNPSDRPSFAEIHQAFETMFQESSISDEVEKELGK
Type: binding

Structure (SMILES)	ΔTm at 10 µM [°C]
O=C(NCc1ccc(C(F)(F)F)cc1)Nc1ccc2cc1OCCOCCNc1ccn3ncc-2c3n1 [compound 28]	0.9
COc1ccccc1CNC(=O)Nc1ccc2cc1OCCOCCNc1ccn3ncc-2c3n1 [compound 29]	0.7

What follows are compounds tested against T10, PIM1 (PIM1A) (Homo sapiens, UniProt P11309) (assay: DSF Tm panel). Settings: 10 μM compound.
T10 construct: purchased in-house DSF kinase panel (SGC-style construct names; the trailing letter is the construct ID)
Type: binding

T10 sequence (P11309 whole entry): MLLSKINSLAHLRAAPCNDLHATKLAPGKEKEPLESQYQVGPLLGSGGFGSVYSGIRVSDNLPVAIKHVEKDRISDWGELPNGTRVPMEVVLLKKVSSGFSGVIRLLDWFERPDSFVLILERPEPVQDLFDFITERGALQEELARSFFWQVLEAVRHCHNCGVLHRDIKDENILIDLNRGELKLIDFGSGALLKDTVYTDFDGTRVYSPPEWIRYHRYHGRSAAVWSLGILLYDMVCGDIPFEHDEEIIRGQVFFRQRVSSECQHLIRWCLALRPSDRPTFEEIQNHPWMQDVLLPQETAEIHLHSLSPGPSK

Structure (SMILES)	ΔTm at 10 µM [°C]
O=C(NCc1ccc(C(F)(F)F)cc1)Nc1ccc2cc1OCCOCCNc1ccn3ncc-2c3n1 [compound 28]	1
COc1ccccc1CNC(=O)Nc1ccc2cc1OCCOCCNc1ccn3ncc-2c3n1 [compound 29]	1

The compounds below were run against T11, GPRK5A (Homo sapiens, UniProt P34947) (assay: DSF Tm panel). Settings: 10 μM compound.
T11 construct: purchased in-house DSF kinase panel (SGC-style construct names; the trailing letter is the construct ID)
Type: binding

T11 sequence (P34947 186-514): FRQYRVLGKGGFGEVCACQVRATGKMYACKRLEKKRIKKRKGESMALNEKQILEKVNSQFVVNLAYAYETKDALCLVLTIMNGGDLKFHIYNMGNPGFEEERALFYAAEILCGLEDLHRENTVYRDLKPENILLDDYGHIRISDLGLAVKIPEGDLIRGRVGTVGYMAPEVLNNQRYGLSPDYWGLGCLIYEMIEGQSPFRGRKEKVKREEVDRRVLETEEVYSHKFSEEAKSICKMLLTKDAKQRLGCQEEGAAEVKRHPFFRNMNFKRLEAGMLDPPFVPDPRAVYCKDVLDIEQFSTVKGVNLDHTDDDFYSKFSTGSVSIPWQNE

Structure (SMILES)	ΔTm at 10 µM [°C]
O=C(NCc1ccc(C(F)(F)F)cc1)Nc1ccc2cc1OCCOCCNc1ccn3ncc-2c3n1 [compound 28]	0.7
COc1ccccc1CNC(=O)Nc1ccc2cc1OCCOCCNc1ccn3ncc-2c3n1 [compound 29]	0.4

Each compound was assayed against T12, BRAFA (Homo sapiens, UniProt P15056) (assay: DSF Tm panel). Settings: 10 μM compound.
T12 construct: purchased in-house DSF kinase panel (SGC-style construct names; the trailing letter is the construct ID)
Type: binding

T12 sequence (P15056 448-723): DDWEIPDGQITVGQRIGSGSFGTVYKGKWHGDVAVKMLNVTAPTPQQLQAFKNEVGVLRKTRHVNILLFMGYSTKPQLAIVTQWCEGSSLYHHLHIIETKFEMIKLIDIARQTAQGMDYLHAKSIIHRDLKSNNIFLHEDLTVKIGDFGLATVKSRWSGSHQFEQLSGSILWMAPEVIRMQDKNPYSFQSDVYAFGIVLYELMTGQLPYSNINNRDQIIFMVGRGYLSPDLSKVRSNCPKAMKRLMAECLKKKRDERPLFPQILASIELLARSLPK

Structure (SMILES)	ΔTm at 10 µM [°C]
O=C(NCc1ccc(C(F)(F)F)cc1)Nc1ccc2cc1OCCOCCNc1ccn3ncc-2c3n1 [compound 28]	0
COc1ccccc1CNC(=O)Nc1ccc2cc1OCCOCCNc1ccn3ncc-2c3n1 [compound 29]	-0.4

These compounds were tested against T13, CSNK1DA (Homo sapiens, UniProt P48730) (assay: DSF Tm panel). Settings: 10 μM compound.
T13 construct: purchased in-house DSF kinase panel (SGC-style construct names; the trailing letter is the construct ID)
T13 sequence (P48730 1-294): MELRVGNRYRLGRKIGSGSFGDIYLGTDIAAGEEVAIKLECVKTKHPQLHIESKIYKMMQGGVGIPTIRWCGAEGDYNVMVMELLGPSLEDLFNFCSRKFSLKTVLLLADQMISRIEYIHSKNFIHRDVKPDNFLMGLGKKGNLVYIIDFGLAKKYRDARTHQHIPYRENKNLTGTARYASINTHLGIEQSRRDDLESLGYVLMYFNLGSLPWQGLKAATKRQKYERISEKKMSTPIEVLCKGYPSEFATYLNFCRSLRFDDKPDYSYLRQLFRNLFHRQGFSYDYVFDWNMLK
Type: binding

Structure (SMILES)	ΔTm at 10 µM [°C]
O=C(NCc1ccc(C(F)(F)F)cc1)Nc1ccc2cc1OCCOCCNc1ccn3ncc-2c3n1 [compound 28]	-0.5
COc1ccccc1CNC(=O)Nc1ccc2cc1OCCOCCNc1ccn3ncc-2c3n1 [compound 29]	0.2

Each compound was assayed against T14, OSR1A (Homo sapiens, UniProt O95747) (assay: DSF Tm panel). Settings: 10 μM compound.
T14 construct: purchased in-house DSF kinase panel (SGC-style construct names; the trailing letter is the construct ID)
Type: binding

T14 sequence (O95747 17-291): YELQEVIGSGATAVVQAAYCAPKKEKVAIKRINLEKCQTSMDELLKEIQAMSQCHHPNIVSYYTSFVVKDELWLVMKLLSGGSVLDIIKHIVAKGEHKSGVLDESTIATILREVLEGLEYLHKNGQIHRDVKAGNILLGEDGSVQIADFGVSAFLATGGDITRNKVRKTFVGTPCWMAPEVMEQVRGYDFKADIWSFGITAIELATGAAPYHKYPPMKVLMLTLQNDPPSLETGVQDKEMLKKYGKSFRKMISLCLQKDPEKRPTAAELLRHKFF

Structure (SMILES)	ΔTm at 10 µM [°C]
O=C(NCc1ccc(C(F)(F)F)cc1)Nc1ccc2cc1OCCOCCNc1ccn3ncc-2c3n1 [compound 28]	2.2
COc1ccccc1CNC(=O)Nc1ccc2cc1OCCOCCNc1ccn3ncc-2c3n1 [compound 29]	0.9

What follows are compounds tested against T15, DMPK1A (Homo sapiens, UniProt Q09013) (assay: DSF Tm panel). Settings: 10 μM compound.
T15 construct: purchased in-house DSF kinase panel (SGC-style construct names; the trailing letter is the construct ID)
T15 sequence (Q09013 1-629): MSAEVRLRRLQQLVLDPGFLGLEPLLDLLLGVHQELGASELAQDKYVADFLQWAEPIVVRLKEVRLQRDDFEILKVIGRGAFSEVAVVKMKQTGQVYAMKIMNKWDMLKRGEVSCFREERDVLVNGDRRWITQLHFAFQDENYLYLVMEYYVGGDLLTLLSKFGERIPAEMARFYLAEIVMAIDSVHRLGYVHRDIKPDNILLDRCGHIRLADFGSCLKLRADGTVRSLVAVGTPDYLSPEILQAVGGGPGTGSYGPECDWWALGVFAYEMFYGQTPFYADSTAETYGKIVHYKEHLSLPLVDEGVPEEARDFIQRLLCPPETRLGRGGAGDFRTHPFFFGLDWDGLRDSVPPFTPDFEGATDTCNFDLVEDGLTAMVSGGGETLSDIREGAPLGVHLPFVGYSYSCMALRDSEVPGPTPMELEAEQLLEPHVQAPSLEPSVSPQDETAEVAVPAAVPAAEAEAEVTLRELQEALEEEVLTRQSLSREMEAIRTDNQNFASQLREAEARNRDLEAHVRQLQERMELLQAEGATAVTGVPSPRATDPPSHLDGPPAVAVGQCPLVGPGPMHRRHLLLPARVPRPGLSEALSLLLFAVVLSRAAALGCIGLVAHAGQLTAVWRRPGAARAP
Type: binding

Structure (SMILES)	ΔTm at 10 µM [°C]
O=C(NCc1ccc(C(F)(F)F)cc1)Nc1ccc2cc1OCCOCCNc1ccn3ncc-2c3n1 [compound 28]	0.3
COc1ccccc1CNC(=O)Nc1ccc2cc1OCCOCCNc1ccn3ncc-2c3n1 [compound 29]	0.3

What follows are compounds tested against T16, SRPK1A (Homo sapiens, UniProt Q96SB4) (assay: DSF Tm panel). Settings: 10 μM compound.
T16 construct: purchased in-house DSF kinase panel (SGC-style construct names; the trailing letter is the construct ID)
Type: binding

T16 sequence (Q96SB4 80-653): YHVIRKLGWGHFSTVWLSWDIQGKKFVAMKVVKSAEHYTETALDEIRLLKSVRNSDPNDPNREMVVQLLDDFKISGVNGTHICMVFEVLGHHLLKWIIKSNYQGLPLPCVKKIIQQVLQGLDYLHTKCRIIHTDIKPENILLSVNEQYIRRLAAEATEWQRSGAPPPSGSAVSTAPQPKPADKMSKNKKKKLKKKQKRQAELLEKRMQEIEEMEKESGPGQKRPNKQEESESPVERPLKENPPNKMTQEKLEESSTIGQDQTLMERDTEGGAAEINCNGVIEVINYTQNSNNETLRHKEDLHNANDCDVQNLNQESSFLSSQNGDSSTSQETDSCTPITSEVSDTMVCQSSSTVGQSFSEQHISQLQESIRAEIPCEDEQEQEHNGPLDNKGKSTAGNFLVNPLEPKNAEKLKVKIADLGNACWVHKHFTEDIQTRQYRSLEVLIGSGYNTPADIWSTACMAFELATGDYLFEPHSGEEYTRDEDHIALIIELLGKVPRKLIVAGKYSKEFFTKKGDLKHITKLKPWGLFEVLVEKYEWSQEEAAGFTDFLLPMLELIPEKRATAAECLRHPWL

Structure (SMILES)	ΔTm at 10 µM [°C]
O=C(NCc1ccc(C(F)(F)F)cc1)Nc1ccc2cc1OCCOCCNc1ccn3ncc-2c3n1 [compound 28]	0
COc1ccccc1CNC(=O)Nc1ccc2cc1OCCOCCNc1ccn3ncc-2c3n1 [compound 29]	0.2

Each compound was assayed against T17, AKT3A (Homo sapiens, UniProt Q9Y243) (assay: DSF Tm panel). Settings: 10 μM compound.
T17 construct: purchased in-house DSF kinase panel (SGC-style construct names; the trailing letter is the construct ID)
Type: binding

T17 sequence (Q9Y243 148-479): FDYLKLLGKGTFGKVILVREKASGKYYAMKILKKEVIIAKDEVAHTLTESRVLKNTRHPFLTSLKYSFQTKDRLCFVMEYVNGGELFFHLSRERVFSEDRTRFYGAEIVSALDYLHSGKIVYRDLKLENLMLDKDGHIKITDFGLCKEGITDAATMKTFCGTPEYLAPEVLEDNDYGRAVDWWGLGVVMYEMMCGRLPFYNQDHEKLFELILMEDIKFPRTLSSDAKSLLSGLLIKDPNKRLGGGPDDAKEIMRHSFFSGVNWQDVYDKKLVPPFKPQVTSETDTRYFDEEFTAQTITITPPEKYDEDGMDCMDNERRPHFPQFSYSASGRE

Structure (SMILES)	ΔTm at 10 µM [°C]
O=C(NCc1ccc(C(F)(F)F)cc1)Nc1ccc2cc1OCCOCCNc1ccn3ncc-2c3n1 [compound 28]	0.4
COc1ccccc1CNC(=O)Nc1ccc2cc1OCCOCCNc1ccn3ncc-2c3n1 [compound 29]	0.3

These compounds were tested against T18, MAPK14A (Homo sapiens, UniProt Q16539) (assay: DSF Tm panel). Settings: 10 μM compound.
T18 construct: purchased in-house DSF kinase panel (SGC-style construct names; the trailing letter is the construct ID)
Type: binding

T18 sequence (Q16539 whole entry): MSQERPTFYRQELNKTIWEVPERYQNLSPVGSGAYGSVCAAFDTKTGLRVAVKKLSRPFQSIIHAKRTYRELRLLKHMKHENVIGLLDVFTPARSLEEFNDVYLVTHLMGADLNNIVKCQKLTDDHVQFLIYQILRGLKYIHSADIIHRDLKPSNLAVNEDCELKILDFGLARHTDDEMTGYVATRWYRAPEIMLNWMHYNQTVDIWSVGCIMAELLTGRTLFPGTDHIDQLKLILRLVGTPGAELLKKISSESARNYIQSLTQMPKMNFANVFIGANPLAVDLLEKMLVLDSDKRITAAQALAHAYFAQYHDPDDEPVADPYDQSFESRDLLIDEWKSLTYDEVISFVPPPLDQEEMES

Structure (SMILES)	ΔTm at 10 µM [°C]
O=C(NCc1ccc(C(F)(F)F)cc1)Nc1ccc2cc1OCCOCCNc1ccn3ncc-2c3n1 [compound 28]	3.1
COc1ccccc1CNC(=O)Nc1ccc2cc1OCCOCCNc1ccn3ncc-2c3n1 [compound 29]	0.9
